# In PubChem BioAssay AID624333 (NMMLSC, 2012):
# The source made the active and inactive calls.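 Rule for the calls: active = inhibition of binding above 0%; inactive = the rest.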
# Test system: anti-Dsg3 scFv antibody binding to human desmoglein-3
# Test: blockers of Dsg3 recognition by pemphigus scFv, confirmation, orthogonal assay for pemphigus antibody inhibitor project, biochemical, ELISA (AID 624333)
# Conditions: OD, at 200 µM, stronger effect = higher value
row,inhibition of binding,Compound
1,-14% (inactive),OCc1cn(-c2ccccc2)nc1-c1ccc(-c2nn(-c3ccccc3)cc2CO)cc1
2,-3% (inactive),COc1cc(OC)cc(N(C(=O)C2COc3ccccc3O2)C(C(=O)NC2CCCCC2)c2ccc(O)cc2)c1 (centres undefined)
3,-5% (inactive),CCc1ccc(OCC(=O)Nc2ccc(N3CCN(C(=O)c4ccccc4)CC3)cc2)cc1
4,-4% (inactive),CCOc1ccccc1NCc1cc(=O)oc2cc(C)c(O)cc12
5,-32% (inactive),COc1ccccc1NC(=O)Cn1nnc(-c2ccccc2NC(=O)c2cc3ccccc3oc2=O)n1
6,-2% (inactive),COc1ccc(OC)c(NC(=O)c2nc(-c3ccccc3)oc2C)c1
7,5%,CC(=O)Nc1ccc(-c2cc(-c3ccccc3)nc(-c3ccccc3)n2)cc1
8,-2% (inactive),CC(C)OC(=O)CSc1nc2c(cc1C#N)CCCCC2
9,-14% (inactive),CSc1ccccc1OCc1cc(C(=O)NCCC2=CCCCC2)no1
10,8%,Cc1cc(SCC(=O)Nc2ccc3[nH]c(=O)[nH]c3c2)nc2ccccc12
11,-33% (inactive),Cc1c(C(=O)Nc2ccc(OCc3ccccc3)cc2)cccc1[N+](=O)[O-]
12,0% (inactive),Cn1c(SCC(=O)NC2CCCCC2)nnc1-c1cc2cc(Cl)ccc2o1
13,-18% (inactive),NS(=O)(=O)c1ccc(NC(=O)c2cc(-c3cccs3)nc3ccccc23)cc1
14,-19% (inactive),Cc1ccc(C(C)C)c(OCC(=O)Nc2ccc(N3CCN(S(C)(=O)=O)CC3)cc2)c1
